Assay results: publication PMC4975316 (EJIFCC, 2011)

Target: T1, β2GPI (Homo sapiens, UniProt P02749)
T1 sequence (P02749 20-345): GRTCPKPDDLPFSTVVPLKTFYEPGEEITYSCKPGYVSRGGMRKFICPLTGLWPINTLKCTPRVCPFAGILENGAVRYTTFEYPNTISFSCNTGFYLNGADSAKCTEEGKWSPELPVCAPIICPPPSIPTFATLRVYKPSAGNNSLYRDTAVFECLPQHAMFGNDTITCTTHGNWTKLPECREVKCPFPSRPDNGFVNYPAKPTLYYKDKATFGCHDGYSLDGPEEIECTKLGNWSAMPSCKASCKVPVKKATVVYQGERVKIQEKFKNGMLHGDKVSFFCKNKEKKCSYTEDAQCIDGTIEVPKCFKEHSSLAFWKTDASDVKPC
Assay: Surface plasmon resonance
Format: binding
Details: inferred from extremely fast dissociation; 0.005% PBST pH 7.4, 25°C

Sequence: KVWTIPRGGGS
- Affinity towards β2GPI indicated by dissociation (SPR): low affinity towards β2GPI
